Assay results taken from patent US20090130118A1, “SCUTELLARIA BARBATA EXTRACT AND COMBINATIONS FOR THE TREATMENT OF CANCER” (BIONOVO, INC., priority 2007, published 2009).

Legend:
human tumor xenographs = details: doses from 0.75 mg/kg/day to 1.5 mg/kg/day; cited from earlier work
aromatase = biological target: T1, aromatase (Homo sapiens, UniProt P11511); details: in vivo studies; cited from earlier work
T1 sequence (P11511 1-503): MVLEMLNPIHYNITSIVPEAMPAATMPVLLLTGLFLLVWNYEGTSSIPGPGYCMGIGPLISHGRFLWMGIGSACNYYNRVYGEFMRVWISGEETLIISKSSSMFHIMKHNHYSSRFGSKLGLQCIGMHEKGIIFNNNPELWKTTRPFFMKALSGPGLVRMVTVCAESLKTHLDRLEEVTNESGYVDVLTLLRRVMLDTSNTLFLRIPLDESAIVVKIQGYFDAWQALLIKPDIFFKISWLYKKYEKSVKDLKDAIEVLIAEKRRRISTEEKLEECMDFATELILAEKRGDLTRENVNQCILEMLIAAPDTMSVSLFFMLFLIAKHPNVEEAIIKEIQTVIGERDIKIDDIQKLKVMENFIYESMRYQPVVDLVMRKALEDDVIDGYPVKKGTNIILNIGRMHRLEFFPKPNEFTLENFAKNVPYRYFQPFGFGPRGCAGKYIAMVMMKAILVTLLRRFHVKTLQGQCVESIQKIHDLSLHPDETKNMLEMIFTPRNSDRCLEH

estrogen receptors = details: compared with estrodiol; cited from earlier work
estrogen receptor = biological target: T2, estrogen receptor (Homo sapiens, UniProt P03372); details: cited from earlier work
T2 sequence (P03372 1-595): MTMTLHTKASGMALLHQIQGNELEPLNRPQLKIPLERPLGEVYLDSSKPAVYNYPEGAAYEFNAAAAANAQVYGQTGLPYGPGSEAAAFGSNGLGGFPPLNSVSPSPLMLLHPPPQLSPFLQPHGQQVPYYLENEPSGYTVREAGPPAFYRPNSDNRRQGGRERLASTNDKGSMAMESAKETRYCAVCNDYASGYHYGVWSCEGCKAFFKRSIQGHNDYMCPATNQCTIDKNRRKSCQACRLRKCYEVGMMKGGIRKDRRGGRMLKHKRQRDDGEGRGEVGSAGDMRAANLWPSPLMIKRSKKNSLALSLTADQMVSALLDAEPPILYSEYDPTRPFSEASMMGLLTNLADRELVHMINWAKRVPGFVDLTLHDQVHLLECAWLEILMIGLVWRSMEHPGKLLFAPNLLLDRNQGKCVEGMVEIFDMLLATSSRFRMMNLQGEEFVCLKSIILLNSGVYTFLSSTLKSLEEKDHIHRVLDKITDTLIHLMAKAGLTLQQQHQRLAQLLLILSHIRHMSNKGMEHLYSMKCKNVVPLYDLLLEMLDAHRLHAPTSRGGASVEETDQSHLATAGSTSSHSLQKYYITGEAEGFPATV

GnHR receptor = biological target: T3, GnHR receptor (Homo sapiens, UniProt P30968); details: in vivo studies; cited from earlier work
T3 sequence (P30968 1-328): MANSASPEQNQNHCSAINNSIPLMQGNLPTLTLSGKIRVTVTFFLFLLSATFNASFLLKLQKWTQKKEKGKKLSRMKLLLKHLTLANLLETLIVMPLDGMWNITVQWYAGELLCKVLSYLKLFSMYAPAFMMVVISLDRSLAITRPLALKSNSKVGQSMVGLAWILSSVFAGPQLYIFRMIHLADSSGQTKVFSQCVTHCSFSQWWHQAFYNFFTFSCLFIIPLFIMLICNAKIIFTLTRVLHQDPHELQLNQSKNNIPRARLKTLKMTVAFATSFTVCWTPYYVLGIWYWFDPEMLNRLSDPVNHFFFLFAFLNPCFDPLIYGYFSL

ETAR = biological target: T4, ETAR (Homo sapiens, UniProt P25101); details: cited from earlier work
T4 sequence (P25101 21-427): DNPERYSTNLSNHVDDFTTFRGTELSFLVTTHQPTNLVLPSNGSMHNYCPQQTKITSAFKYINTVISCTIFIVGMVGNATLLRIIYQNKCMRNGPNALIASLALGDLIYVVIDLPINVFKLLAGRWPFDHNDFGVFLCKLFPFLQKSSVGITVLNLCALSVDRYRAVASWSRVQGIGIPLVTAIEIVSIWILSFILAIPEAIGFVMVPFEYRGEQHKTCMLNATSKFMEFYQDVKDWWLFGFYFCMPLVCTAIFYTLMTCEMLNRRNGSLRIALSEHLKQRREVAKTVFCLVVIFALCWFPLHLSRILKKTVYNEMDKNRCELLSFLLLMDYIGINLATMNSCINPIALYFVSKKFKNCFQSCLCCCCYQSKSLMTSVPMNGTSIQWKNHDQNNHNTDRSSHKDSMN

ETBR = biological target: T5, ETBR (Homo sapiens, UniProt P24530); details: cited from earlier work
T5 sequence (P24530 27-442): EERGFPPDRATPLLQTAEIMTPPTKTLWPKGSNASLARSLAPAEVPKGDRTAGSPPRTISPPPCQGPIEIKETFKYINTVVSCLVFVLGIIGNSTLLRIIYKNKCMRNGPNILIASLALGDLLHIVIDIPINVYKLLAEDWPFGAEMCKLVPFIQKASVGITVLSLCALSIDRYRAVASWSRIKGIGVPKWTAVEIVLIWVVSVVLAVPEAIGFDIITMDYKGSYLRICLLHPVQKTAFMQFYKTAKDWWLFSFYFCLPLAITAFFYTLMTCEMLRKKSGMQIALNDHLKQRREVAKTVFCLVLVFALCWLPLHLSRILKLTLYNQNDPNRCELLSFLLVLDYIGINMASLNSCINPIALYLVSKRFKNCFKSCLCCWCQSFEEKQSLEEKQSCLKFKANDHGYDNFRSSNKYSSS

[1] = system: subcutaneous cancer xenografts; experiment: Mouse xenograft model, oral administration; format: in vivo; details: BZL101 0.5 ml oral gavage every third day; cyclophosphamide 25 mg/Kg/day in drinking water; FIG. 6
Experimental: As in Example 1, above, 10^5 cells were administered to each animal subcutaneously on Day 0. The animals were divided into four groups. The control group received only normal drinking water. The cyclophosphamide only group received 25 mg/Kg/day of cyclophosphamide in their drinking water.

Structure (SMILES): COc1cc2c(Oc3ccc4[nH]c(C)cc4c3F)ncnc2cc1OCCCN1CCCC1 [AZD 2171]
- tumor angiogenesis (human tumor xenographs): inhibited tumor angiogenesis

Structure (SMILES): CC(C)(C#N)c1cc(Cn2cncn2)cc(C(C)(C)C#N)c1 [Anastrozole]
- serum estradiol concentrations (aromatase): significantly lowers serum estradiol concentrations

Structure (SMILES): C[C@]12CC[C@@H]3c4ccc(O)cc4C[C@@H](CCCCCCCCC[S+]([O-])CCCC(F)(F)C(F)(F)F)[C@H]3[C@@H]1CC[C@@H]2O (stereo partly drawn) [Fulvestrant]
- affinity for estrogen receptors (estrogen receptors): affinity that is similar to that of estrodiol
- effect on estrogen receptor level (estrogen receptor): downregulates and degrades the estrogen receptor

Structure (SMILES): CC(C)C[C@H](NC(=O)[C@@H](COC(C)(C)C)NC(=O)[C@H](Cc1ccc(O)cc1)NC(=O)[C@H](CO)NC(=O)[C@H](Cc1c[nH]c2ccccc12)NC(=O)[C@H](Cc1cnc[nH]1)NC(=O)[C@@H]1CCC(=O)N1)C(=O)N[C@@H](CCCNC(=N)N)C(=O)N1CCC[C@H]1C(=O)NNC(N)=O [Goserelin]
- production of FSH and LH and sex hormones, initial effect (GnHR receptor): initial increase in production of FSH and LH
- time after which the receptor is downregulated and LH or FSH levels fall (GnHR receptor): 14 to 21 days

Structure (SMILES): COc1nc(C)cnc1NS(=O)(=O)c1cccnc1-c1ccc(-c2nnco2)cc1 [ZD4054]
- binding to ETAR (ETAR): only binds to ETAR
- effect on ETBR (ETBR): no detectable effect on ETBR

Structure (SMILES): O=P1(N(CCCl)CCCl)NCCCO1 (stereo not drawn) [cyclophosphamide]
- tumor growth in xenograft [1]: inhibited tumor growth as compared to the control
